For series [1] the following is noted: rat, in vivo, iv, 20 mg/kg.
Experimental: (§2) The tests were performed by methods well-recognized in the art.
(§3) Specifically, the male Sprague-Dawley rats were administered a 20 mg/kg dose intravenously. The plasma levels of the administered compound were monitored by bioassay with an E. coli strain.
For series [2], the system named is Staphylococcus aureus S13E. In words: MIC by standard agar dilution test. In kind it is cell-based. The following applies: β-lactamase producer, penicillin G resistant. The source says: (§1) The antibiotic activity of selected compounds of Formula I and, for comparison, a compound of related structure, is illustrated by the following in vitro test data. In Table I, the minimum inhibitory concentrations (MIC) for the compounds against a wide range of gram-positive and gram-negative bacteria are presented. The MIC values were obtained by the standard agar dilution test method. The excellent in vitro activity of the claimed compounds is especially surprising in light of their high solution stability. High solution stability of a β-lactam compound was until now thought to indicate low acylating ability of the β-lactam, and thus low antibacterial activity for the compound.

The subject of another series is Salmonella typhi 1335. As to the kind of experiment: MIC by standard agar dilution test. In kind it is cell-based.
Text: as §1
On the technique in general: Agar dilution tests growth on a series of plates holding different concentrations.

In a further series the test system is Shigella sonnei N9. As to the kind of experiment: MIC by standard agar dilution test. In kind it is cell-based.
Text: as §1

The next series deals with Salmonella typhi X514. In words: MIC by standard agar dilution test. It is filed as cell-based.
Text: as §1

A short description of series [3]: Intravenous pharmacokinetics in the rat, plasma levels monitored by bioassay with an E. coli strain.
Experimental: as §2, §3
Series [4] has as its system Staphylococcus aureus V41. In words: MIC by standard agar dilution test. In kind it is cell-based. The following applies: Staphylococcus aureus V41, penicillin G resistant.
Text: as §1

Series [5] deals with Staphylococcus epidermidis EPI2. As to the kind of experiment: MIC by standard agar dilution test. In kind it is cell-based. The conditions noted are these: Staphylococcus epidermidis EPI2, methicillin resistant.
Text: as §1

The test system of series [6] is Streptococcus pneumoniae Park I. As to the kind of experiment: MIC by standard agar dilution test. It is filed as cell-based.
Text: as §1

Another series concerns Escherichia coli TEM. As to the kind of experiment: MIC by standard agar dilution test. It is filed as cell-based. The following applies: β-lactamase producer.
Text: as §1

Series [7] has as its system Hemophilus influenzae C.L. In words: MIC by standard agar dilution test. It is filed as cell-based.
Text: as §1

Series [8] concerns Staphylococcus epidermidis EPI1. In words: MIC by standard agar dilution test. The conditions noted are these: Staphylococcus epidermidis EPI1, methicillin resistant. In kind it is cell-based.
Text: as §1

Counter-ions that a name gives are not always drawn. Like-named read-outs stand apart in the source and are kept apart here.

This is an account of results in patent publication EP0266896A1, “7-( (Meta-substituted) phenylglycine) 1-carba-1-dethiacephalosporins” (priority 1986, dated 1988).

As for `CCS(=O)(=O)Nc1cccc([C@@H](N)C(=O)N[C@@H]2C(=O)N3C(C(=O)O)=C(Cl)CC[C@H]23)c1` [Example 4, 7β-[2ʹ-(R)-2ʹ-(m-(Ethylsulfonamido)phenyl)-2ʹ-Aminoace amido)-3-Chloro-3-(1-Carba-1-Dethiacephem)-4-Carboxylic Acid, Zwitterionic Salt], in [1], the “AUC (area under the curve)” value is 12. Also, in series [1], the Half-Life was 41 min. Moreover, the “Minimum Inhibitory Concentration” value (in series [2]; in the series on Salmonella typhi 1335; with Shigella sonnei N9; with Salmonella typhi X514) was 2 µg/mL in each case.

As to `CS(=O)(=O)Nc1cccc([C@@H](N)C(=O)N[C@@H]2C(=O)N3C(C(=O)O)=C(Cl)CC[C@H]23)c1` [Example 2, 7β-[2ʹ-(R)-2ʹ-(m-(Methylsulfonamido)phenyl)-2ʹ-Aminoactamido]-3-Chloro-3-(1-Carba-1-Dethiacephem)-4-Carboxyli c Acid, Zwitterionic Salt], the Half-Life in [3] (rat, plasma, iv, 20 mg/kg) is 317 min.

Consider `CCS(=O)(=O)Nc1cccc(C(N)C(=O)N[C@@H]2C(=O)N3C(C(=O)O)=C(Cl)CC[C@H]23)c1.O=C(O)C(F)(F)F` (stereo partly drawn) [Example 3, 7β-[2ʹ-(R,S)-2ʹ-(m-(Ethylsulfonamido)phenyl)-2ʹ-Aminoaetamido]-3-Chloro-3-(1-Carba-1-Dethiacephem)-4-Carboxyl ic Acid Trifluoroacetate Salt], for which, in [1], the “AUC (area under the curve)” value came out at 18 and the Half-Life came out at 33 min.

As to `CCCS(=O)(=O)Nc1cccc([C@@H](N)C(=O)N[C@@H]2C(=O)N3C(C(=O)O)=C(Cl)CC[C@H]23)c1` [Example 5, 7β-[2ʹ-(R)-2ʹ-(m-(n-Propylsulfonamido)phenyl)-2ʹ-Aminocetamido]-3-Chloro-3-(1-Carba-1-Dethiacephem)-4-Carboxy lic Acid, Zwitterionic Salt.], in [1], the “AUC (area under the curve)” value is 20 and the Half-Life amounted to 39 min.

`CS(=O)(=O)Nc1cccc([C@@H](N)C(=O)N[C@@H]2C(=O)N3C(C(=O)O)=C(Cl)CC[C@H]23)c1.O=C(O)C(F)(F)F` [Example 1, 7β-[2ʹ-(R)-2ʹ-(m-(Methylsulfonamido)phenyl)-2ʹ-Aminoactamido]-3-Chloro-3-(1-Carba-1-Dethiacephem)-4-Carboxyli c Acid Trifluoroacetate Salt]: the “Minimum Inhibitory Concentration” value in series [2] is 2 µg/mL; in [4], 4 µg/mL; in series [5], 2 µg/mL; in series [6], 1 µg/mL; in the series with Escherichia coli TEM, 0.25 µg/mL; in the series with Salmonella typhi 1335 it was 0.5 µg/mL. In addition, the “Minimum Inhibitory Concentration” value in the series on Shigella sonnei N9 came to 0.5 µg/mL; in the series with Salmonella typhi X514, 0.5 µg/mL; in series [7], 2 µg/mL; in [8], 4 µg/mL. Also, the Half-Life in series [3] (rat plasma, 20 mg/kg intravenously, bioassay, model-independent analysis) was 334 min.
